# Oligonucleotides are given in HELM: sugar(base)linkage, 5' to 3'; d 2'-deoxyribose, r ribose, m 2'-O-methylribose, p phosphate. ss, as = sense and antisense strand
# Biological target: TMEM63B
# Experiment: reporter assay of Huesken 2005
# Conditions: siRNA
# Also: test concentration or dose not given here.
row,Substance,normalised inhibition (eCFP-eYFP dual reporter)
1,RNA1{r(G)p.r(C)p.r(A)p.r(C)p.r(A)p.r(A)p.r(G)p.r(U)p.r(G)p.r(C)p.r(U)p.r(A)p.r(C)p.r(A)p.r(C)p.r(U)p.r(U)p.r(U)p.r(C)p.d(T)p.d(T)}|RNA2{r(G)p.r(A)p.r(A)p.r(A)p.r(G)p.r(U)p.r(G)p.r(U)p.r(A)p.r(G)p.r(C)p.r(A)p.r(C)p.r(U)p.r(U)p.r(G)p.r(U)p.r(G)p.r(C)p.d(A)p.d(T)}$$$RNA1{StrandType:ss}|RNA2{StrandType:as}$,83.6%
2,RNA1{r(G)p.r(C)p.r(A)p.r(C)p.r(A)p.r(U)p.r(C)p.r(A)p.r(U)p.r(C)p.r(G)p.r(G)p.r(G)p.r(C)p.r(U)p.r(G)p.r(C)p.r(U)p.r(G)p.d(T)p.d(T)}|RNA2{r(C)p.r(A)p.r(G)p.r(C)p.r(A)p.r(G)p.r(C)p.r(C)p.r(C)p.r(G)p.r(A)p.r(U)p.r(G)p.r(A)p.r(U)p.r(G)p.r(U)p.r(G)p.r(C)p.d(C)p.d(G)}$$$RNA1{StrandType:ss}|RNA2{StrandType:as}$,69.9%
3,RNA1{r(G)p.r(C)p.r(A)p.r(U)p.r(U)p.r(U)p.r(U)p.r(G)p.r(A)p.r(G)p.r(G)p.r(A)p.r(A)p.r(G)p.r(C)p.r(C)p.r(U)p.r(A)p.r(C)p.d(T)p.d(T)}|RNA2{r(G)p.r(U)p.r(A)p.r(G)p.r(G)p.r(C)p.r(U)p.r(U)p.r(C)p.r(C)p.r(U)p.r(C)p.r(A)p.r(A)p.r(A)p.r(A)p.r(U)p.r(G)p.r(C)p.d(T)p.d(T)}$$$RNA1{StrandType:ss}|RNA2{StrandType:as}$,87.3%
4,RNA1{r(G)p.r(C)p.r(C)p.r(U)p.r(A)p.r(C)p.r(C)p.r(A)p.r(U)p.r(G)p.r(A)p.r(U)p.r(C)p.r(A)p.r(A)p.r(C)p.r(C)p.r(C)p.r(C)p.d(T)p.d(T)}|RNA2{r(G)p.r(G)p.r(G)p.r(G)p.r(U)p.r(U)p.r(G)p.r(A)p.r(U)p.r(C)p.r(A)p.r(U)p.r(G)p.r(G)p.r(U)p.r(A)p.r(G)p.r(G)p.r(C)p.d(A)p.d(C)}$$$RNA1{StrandType:ss}|RNA2{StrandType:as}$,39.6%
5,RNA1{r(G)p.r(C)p.r(C)p.r(U)p.r(A)p.r(C)p.r(G)p.r(C)p.r(C)p.r(U)p.r(G)p.r(G)p.r(A)p.r(U)p.r(G)p.r(A)p.r(U)p.r(G)p.r(U)p.d(T)p.d(T)}|RNA2{r(A)p.r(C)p.r(A)p.r(U)p.r(C)p.r(A)p.r(U)p.r(C)p.r(C)p.r(A)p.r(G)p.r(G)p.r(C)p.r(G)p.r(U)p.r(A)p.r(G)p.r(G)p.r(C)p.d(T)p.d(G)}$$$RNA1{StrandType:ss}|RNA2{StrandType:as}$,72.3%
6,RNA1{r(G)p.r(C)p.r(C)p.r(U)p.r(U)p.r(U)p.r(G)p.r(U)p.r(C)p.r(A)p.r(C)p.r(C)p.r(U)p.r(U)p.r(C)p.r(C)p.r(A)p.r(C)p.r(A)p.d(T)p.d(T)}|RNA2{r(U)p.r(G)p.r(U)p.r(G)p.r(G)p.r(A)p.r(A)p.r(G)p.r(G)p.r(U)p.r(G)p.r(A)p.r(C)p.r(A)p.r(A)p.r(A)p.r(G)p.r(G)p.r(C)p.d(C)p.d(A)}$$$RNA1{StrandType:ss}|RNA2{StrandType:as}$,72.5%
7,RNA1{r(G)p.r(C)p.r(G)p.r(A)p.r(A)p.r(A)p.r(U)p.r(A)p.r(C)p.r(A)p.r(U)p.r(C)p.r(G)p.r(C)p.r(U)p.r(C)p.r(A)p.r(G)p.r(G)p.d(T)p.d(T)}|RNA2{r(C)p.r(C)p.r(U)p.r(G)p.r(A)p.r(G)p.r(C)p.r(G)p.r(A)p.r(U)p.r(G)p.r(U)p.r(A)p.r(U)p.r(U)p.r(U)p.r(C)p.r(G)p.r(C)p.d(A)p.d(G)}$$$RNA1{StrandType:ss}|RNA2{StrandType:as}$,40.2%
8,RNA1{r(G)p.r(C)p.r(G)p.r(U)p.r(C)p.r(U)p.r(U)p.r(C)p.r(A)p.r(C)p.r(G)p.r(G)p.r(U)p.r(G)p.r(G)p.r(U)p.r(C)p.r(A)p.r(U)p.d(T)p.d(T)}|RNA2{r(A)p.r(U)p.r(G)p.r(A)p.r(C)p.r(C)p.r(A)p.r(C)p.r(C)p.r(G)p.r(U)p.r(G)p.r(A)p.r(A)p.r(G)p.r(A)p.r(C)p.r(G)p.r(C)p.d(A)p.d(C)}$$$RNA1{StrandType:ss}|RNA2{StrandType:as}$,75.9%
9,RNA1{r(G)p.r(C)p.r(U)p.r(A)p.r(U)p.r(G)p.r(C)p.r(A)p.r(C)p.r(G)p.r(G)p.r(G)p.r(G)p.r(A)p.r(C)p.r(A)p.r(G)p.r(C)p.r(C)p.d(T)p.d(T)}|RNA2{r(G)p.r(G)p.r(C)p.r(U)p.r(G)p.r(U)p.r(C)p.r(C)p.r(C)p.r(C)p.r(G)p.r(U)p.r(G)p.r(C)p.r(A)p.r(U)p.r(A)p.r(G)p.r(C)p.d(T)p.d(G)}$$$RNA1{StrandType:ss}|RNA2{StrandType:as}$,73.2%
10,RNA1{r(G)p.r(C)p.r(U)p.r(G)p.r(C)p.r(U)p.r(G)p.r(A)p.r(A)p.r(G)p.r(C)p.r(A)p.r(C)p.r(C)p.r(U)p.r(G)p.r(G)p.r(U)p.r(A)p.d(T)p.d(T)}|RNA2{r(U)p.r(A)p.r(C)p.r(C)p.r(A)p.r(G)p.r(G)p.r(U)p.r(G)p.r(C)p.r(U)p.r(U)p.r(C)p.r(A)p.r(G)p.r(C)p.r(A)p.r(G)p.r(C)p.d(A)p.d(T)}$$$RNA1{StrandType:ss}|RNA2{StrandType:as}$,82.4%
11,RNA1{r(G)p.r(C)p.r(U)p.r(U)p.r(U)p.r(G)p.r(G)p.r(G)p.r(A)p.r(G)p.r(A)p.r(A)p.r(C)p.r(C)p.r(A)p.r(C)p.r(C)p.r(A)p.r(U)p.d(T)p.d(T)}|RNA2{r(A)p.r(U)p.r(G)p.r(G)p.r(U)p.r(G)p.r(G)p.r(U)p.r(U)p.r(C)p.r(U)p.r(C)p.r(C)p.r(C)p.r(A)p.r(A)p.r(A)p.r(G)p.r(C)p.d(T)p.d(G)}$$$RNA1{StrandType:ss}|RNA2{StrandType:as}$,75.8%
12,RNA1{r(G)p.r(G)p.r(A)p.r(U)p.r(G)p.r(A)p.r(U)p.r(C)p.r(U)p.r(G)p.r(G)p.r(U)p.r(G)p.r(A)p.r(A)p.r(G)p.r(C)p.r(G)p.r(G)p.d(T)p.d(T)}|RNA2{r(C)p.r(C)p.r(G)p.r(C)p.r(U)p.r(U)p.r(C)p.r(A)p.r(C)p.r(C)p.r(A)p.r(G)p.r(A)p.r(U)p.r(C)p.r(A)p.r(U)p.r(C)p.r(C)p.d(T)p.d(C)}$$$RNA1{StrandType:ss}|RNA2{StrandType:as}$,63.9%
13,RNA1{r(G)p.r(G)p.r(A)p.r(U)p.r(G)p.r(A)p.r(U)p.r(G)p.r(A)p.r(G)p.r(A)p.r(U)p.r(C)p.r(C)p.r(G)p.r(G)p.r(G)p.r(A)p.r(C)p.d(T)p.d(T)}|RNA2{r(G)p.r(U)p.r(C)p.r(C)p.r(C)p.r(G)p.r(G)p.r(A)p.r(U)p.r(C)p.r(U)p.r(C)p.r(A)p.r(U)p.r(C)p.r(A)p.r(U)p.r(C)p.r(C)p.d(T)p.d(T)}$$$RNA1{StrandType:ss}|RNA2{StrandType:as}$,89.3%
14,RNA1{r(G)p.r(G)p.r(C)p.r(C)p.r(A)p.r(A)p.r(G)p.r(C)p.r(U)p.r(G)p.r(G)p.r(A)p.r(C)p.r(A)p.r(A)p.r(G)p.r(A)p.r(A)p.r(G)p.d(T)p.d(T)}|RNA2{r(C)p.r(U)p.r(U)p.r(C)p.r(U)p.r(U)p.r(G)p.r(U)p.r(C)p.r(C)p.r(A)p.r(G)p.r(C)p.r(U)p.r(U)p.r(G)p.r(G)p.r(C)p.r(C)p.d(G)p.d(G)}$$$RNA1{StrandType:ss}|RNA2{StrandType:as}$,65%
15,RNA1{r(G)p.r(G)p.r(C)p.r(C)p.r(U)p.r(G)p.r(C)p.r(U)p.r(C)p.r(A)p.r(U)p.r(G)p.r(U)p.r(A)p.r(C)p.r(A)p.r(U)p.r(G)p.r(A)p.d(T)p.d(T)}|RNA2{r(U)p.r(C)p.r(A)p.r(U)p.r(G)p.r(U)p.r(A)p.r(C)p.r(A)p.r(U)p.r(G)p.r(A)p.r(G)p.r(C)p.r(A)p.r(G)p.r(G)p.r(C)p.r(C)p.d(T)p.d(G)}$$$RNA1{StrandType:ss}|RNA2{StrandType:as}$,71.9%
16,RNA1{r(G)p.r(G)p.r(G)p.r(A)p.r(G)p.r(A)p.r(A)p.r(C)p.r(A)p.r(G)p.r(G)p.r(A)p.r(C)p.r(A)p.r(A)p.r(C)p.r(C)p.r(A)p.r(U)p.d(T)p.d(T)}|RNA2{r(A)p.r(U)p.r(G)p.r(G)p.r(U)p.r(U)p.r(G)p.r(U)p.r(C)p.r(C)p.r(U)p.r(G)p.r(U)p.r(U)p.r(C)p.r(U)p.r(C)p.r(C)p.r(C)p.d(C)p.d(A)}$$$RNA1{StrandType:ss}|RNA2{StrandType:as}$,65.9%
17,RNA1{r(G)p.r(G)p.r(G)p.r(A)p.r(U)p.r(G)p.r(G)p.r(G)p.r(G)p.r(C)p.r(U)p.r(C)p.r(C)p.r(U)p.r(G)p.r(G)p.r(G)p.r(A)p.r(G)p.d(T)p.d(T)}|RNA2{r(C)p.r(U)p.r(C)p.r(C)p.r(C)p.r(A)p.r(G)p.r(G)p.r(A)p.r(G)p.r(C)p.r(C)p.r(C)p.r(C)p.r(A)p.r(U)p.r(C)p.r(C)p.r(C)p.d(C)p.d(A)}$$$RNA1{StrandType:ss}|RNA2{StrandType:as}$,43.3%
18,RNA1{r(G)p.r(G)p.r(G)p.r(C)p.r(U)p.r(C)p.r(C)p.r(U)p.r(G)p.r(G)p.r(G)p.r(A)p.r(G)p.r(C)p.r(U)p.r(C)p.r(A)p.r(G)p.r(G)p.d(T)p.d(T)}|RNA2{r(C)p.r(C)p.r(U)p.r(G)p.r(A)p.r(G)p.r(C)p.r(U)p.r(C)p.r(C)p.r(C)p.r(A)p.r(G)p.r(G)p.r(A)p.r(G)p.r(C)p.r(C)p.r(C)p.d(C)p.d(A)}$$$RNA1{StrandType:ss}|RNA2{StrandType:as}$,36.3%
19,RNA1{r(G)p.r(G)p.r(G)p.r(U)p.r(U)p.r(C)p.r(C)p.r(U)p.r(A)p.r(G)p.r(C)p.r(U)p.r(C)p.r(C)p.r(C)p.r(A)p.r(C)p.r(G)p.r(U)p.d(T)p.d(T)}|RNA2{r(A)p.r(C)p.r(G)p.r(U)p.r(G)p.r(G)p.r(G)p.r(A)p.r(G)p.r(C)p.r(U)p.r(A)p.r(G)p.r(G)p.r(A)p.r(A)p.r(C)p.r(C)p.r(C)p.d(C)p.d(G)}$$$RNA1{StrandType:ss}|RNA2{StrandType:as}$,57.9%
20,RNA1{r(G)p.r(G)p.r(U)p.r(G)p.r(G)p.r(C)p.r(C)p.r(G)p.r(C)p.r(G)p.r(C)p.r(C)p.r(C)p.r(A)p.r(U)p.r(C)p.r(C)p.r(U)p.r(C)p.d(T)p.d(T)}|RNA2{r(G)p.r(A)p.r(G)p.r(G)p.r(A)p.r(U)p.r(G)p.r(G)p.r(G)p.r(C)p.r(G)p.r(C)p.r(G)p.r(G)p.r(C)p.r(C)p.r(A)p.r(C)p.r(C)p.d(A)p.d(C)}$$$RNA1{StrandType:ss}|RNA2{StrandType:as}$,49.4%

# Source: the OligoGym collection
